Source: US20250333371A1, “COMPOUNDS” (PSYLO PTY LTD, priority 2022, published 2025)
Several values for one entry are separate records, joined by “and”; a condition that tells them apart may be missing. Equal entries are not always repeated. Where two headings read alike, the source gives them in different places.

Key:
5-HT2A = target: T1, 5-HT2A (Homo sapiens, UniProt P28223); assay: FLIPR Ca2+ flux functional assay, 5-HT2A receptor (stably transfected HEK293); format: cell-based
T1 construct: host or cells: HEK293
Protocol: (§1) Activity at 5-HT2A, 5-HT2B and 5-HT2C receptors was determined using a FLIPR Ca^2+ flux assay at WuXi AppTec Co. Ltd. (Hong Kong) Discovery Biology Unit according to their standard protocols. Briefly, stably transfected cells expressing the receptor of interest (HEK293 for 5-HT2A and 5-HT2C; CHO-K1 for 5-HT2B) were grown and plated in a 384 well plate and incubated at 37° C. and 5% CO2 overnight. A 250 mM stock solution of probenecid in FLIPR calcium assay buffer (10 mL) was freshly prepared and combined with a fluorescent dye (Fluo-4 Direct) to give a final assay concentration of 2.5 mM. Reference compounds were 4-fold serially diluted and the screening compounds were 3-fold serially diluted in 100% DMSO for 10 points using Agilent Bravo, and 750 nL was added to a 384 well compound plate using Echo along with 30 μL assay buffer. The fluorescent dye was then added to the assay plate along with assay buffer to a final volume of 40 μL. The cell plate was incubated for 50 min at 37° C. and 5% CO2 and placed into the FLIPR Tetra along with the compound plate. 10 μL of references and compounds were then transferred from the compound plate into the cell plate and the fluorescent signal was read.

5-HT2C = target: T2, 5-HT2C (Homo sapiens, UniProt P28335); assay: FLIPR Ca2+ flux functional assay, 5-HT2C receptor (stably transfected HEK293); format: cell-based
T2 construct: host or cells: HEK293
T2 sequence (P28335 33-458): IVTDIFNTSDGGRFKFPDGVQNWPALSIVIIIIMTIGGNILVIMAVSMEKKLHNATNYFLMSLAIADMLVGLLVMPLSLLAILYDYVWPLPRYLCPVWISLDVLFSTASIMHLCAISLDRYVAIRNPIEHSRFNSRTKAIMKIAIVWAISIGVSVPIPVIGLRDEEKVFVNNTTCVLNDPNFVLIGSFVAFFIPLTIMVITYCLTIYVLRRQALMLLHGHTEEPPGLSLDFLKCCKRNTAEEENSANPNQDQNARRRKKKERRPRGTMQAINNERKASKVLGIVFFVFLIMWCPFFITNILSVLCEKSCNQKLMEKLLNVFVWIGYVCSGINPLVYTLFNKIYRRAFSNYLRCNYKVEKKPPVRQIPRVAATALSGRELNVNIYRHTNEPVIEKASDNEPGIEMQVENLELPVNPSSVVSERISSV
Protocol: as §1

[1] = In vivo pharmacokinetics: plasma and brain exposure after IP administration; parameters: species or system male C57BL/6 mice; details: for B:P Ratio Individual / Plasma Concentration (μM) Individual / concentration at 0.5 h / concentration at 0.083 h / concentration at 4 h / Kp at 0.083 h / Kp at 0.5 h / Kp at 4 h / Kp: 10 mg/kg; for Kp at 0.083 h / Kp at 0.5 h / Kp at 4 h / Kp: brain/plasma; for AUC(0-t): read-out: Plasma AUC0-4 h; for AUC(0-inf): read-out: Plasma AUC0-inf; for half-life: read-out: Apparent t1/2 (converted)
Protocol: The study was conducted using established procedures in accordance with the Australian Code of Practice for the Care and Use of Animals for Scientific Purposes, and the study protocols were reviewed and approved by the Monash Institute of Pharmaceutical Sciences Animal Ethics Committee.
The systemic exposure of selected examples was studied in non-fasted male C57BL/6 mice weighing between 22.3-26.2 g. Mice had access to food and water ad libitum throughout the pre- and post-dose sampling period.
On the day of dosing, the formulation of each compound was prepared by dissolving solid compound in phosphate buffer saline (50 mM) using vortexing, creating colourless solutions (pH 6.1-6.3) for each compound.
Compounds were dosed to mice by IP injection (10 mL/kg dose volume via a 27G needle; n=9 mice per compound) and blood samples were collected at 5 and 30 min; 1, 2 and 4 h post-dose (n=3 mice per time point for each compound). A maximum of three blood samples were obtained from each mouse, with plasma samples being taken via submandibular bleed (approximately 120 μL). Once collected, blood samples were centrifuged immediately, supernatant plasma was removed, and stored at −80° C. until analysis by LCMS. In addition, at the 5 and 30 min and 4 h post-dose time points, the whole brain was rapidly removed from the carcass soon after the blood collection. The whole brains were blotted to remove excess blood, placed into pre-weighed polypropylene vials, and weighed. The brains were snap frozen in dry ice and subsequently stored frozen (−80° C.) until analysis.
Concentrations of test compound in plasma and tissue samples were determined using an LCMS/MS method validated for linearity, accuracy, precision, matrix factor and recovery (Table 2).
Test compound standard solutions were diluted from a concentrated stock solution (1 mg/mL in DMSO) using 50% acetonitrile in water (v/v) and a calibration curve was prepared in a matched matrix to the test samples.
Plasma: The plasma calibration curve was prepared by spiking aliquots of blank mouse plasma (25 μL) with test compound standard solutions (5 μL) and internal standard solution (5 μL of diazepam, 5 μg/mL in 50% acetonitrile in water). Test plasma samples (25 μL) were thawed, mixed, and then spiked with internal standard solution (5 μL). Plasma protein precipitation was performed by addition of acetonitrile (3-fold volume ratio) and thorough vortex mixing. Samples were centrifuged (RCF=9391×g) for 3 minutes and the supernatant (90 μL) was collected for analysis.
Tissue: Pre-weighed tissue samples (brain) were homogenised using a glass rod in buffer containing an EDTA/potassium fluoride solution (0.1 M/4 mg/mL) as a stabilisation cocktail to minimise the potential for ex vivo degradation (3 mL cocktail/g tissue). The tissue homogenate was briefly centrifuged (RCF=79×g) for 10 seconds to separate the foam layer before transferring an aliquot of the tissue homogenate (200 μL) to a fresh Eppendorf tube for sample extraction. Calibration standards were prepared by spiking blank brain homogenate (200 μL) with the solution standards (10 μL) and the internal standard (10 μL). Study samples were similarly prepared, except that acetonitrile (10 μL) was added instead of solution standards to maintain the same volume. Protein precipitation was carried out by the addition of a 3-fold volume of acetonitrile, followed by vortex mixing and centrifugation (RCF=9391×g) for 3 min to recover the supernatant for analysis.
Replicate analysis: Triplicate analytical replicate (ARs) samples were prepared similarly to the standards for each sample type at three concentrations (50, 500 and 2,000 ng/mL) and repeat injections of these ARs were included throughout the analytical run to assess assay performance. The extraction of the test compound from the standards and ARs were conducted as described above. […]

[2] = agonist activity, Ca2+ flux, HEK293
[3] = IP 10 mg/kg, 0.083 h, individual mice
[4] = IP 10 mg/kg, 0.083 h, individual mice, read-out: Brain Parenchyma Concentration (μM) Individual
[5] = IP 10 mg/kg, 0.5 h, individual mice
[6] = IP 10 mg/kg, 0.5 h, individual mice, read-out: Brain Parenchyma Concentration (μM) Individual
[7] = IP 10 mg/kg, 4 h, individual mice
[8] = IP 10 mg/kg, 4 h, individual mice, read-out: Brain Parenchyma Concentration (μM) Individual
[9] = male, C57BL/6, mouse, brain, ip, 0.083 h, individual mice, read-out: Brain Parenchyma Concentration (μM) Individual
[10] = male, C57BL/6, mouse, brain, ip, 0.083 h, n = 3, read-out: Brain Parenchyma Concentration (μM) Mean ± SD
[11] = male, C57BL/6, mouse, brain, ip, 0.5 h, n = 3, read-out: Brain Parenchyma Concentration (μM) Mean ± SD
[12] = male, C57BL/6, mouse, brain, ip, 4 h, n = 3, read-out: Brain Parenchyma Concentration (μM) Mean ± SD
[13] = male, C57BL/6, mouse, ip, 0.083 h, individual mice, read-out: B:P Ratio Individual
[14] = male, C57BL/6, mouse, ip, 0.083 h, n = 3, read-out: B:P Ratio Mean ± SD
[15] = male, C57BL/6, mouse, ip, 0.5 h, individual mice, read-out: B:P Ratio Individual
[16] = male, C57BL/6, mouse, ip, 0.5 h, n = 3, read-out: B:P Ratio Mean ± SD
[17] = male, C57BL/6, mouse, ip, 4 h, individual mice, read-out: B:P Ratio Individual
[18] = male, C57BL/6, mouse, ip, 4 h, n = 3, read-out: B:P Ratio Mean ± SD
[19] = male, C57BL/6, mouse, ip, (fu, brain * AUCbrain, 0-4 h)/(fu, plasma * AUCplasma, 0-4 h), read-out: (Unbound) time-averaged B:P
[20] = male, C57BL/6, mouse, ip, AUCbrain, 0-4 h/AUCplasma, 0-4 h, read-out: (Total) time-averaged B:P
[21] = male, C57BL/6, mouse, plasma, ip, 0.083 h, individual mice, read-out: Plasma Concentration (μM) Individual
[22] = male, C57BL/6, mouse, plasma, ip, 0.083 h, n = 3, read-out: Plasma Concentration (μM) Mean ± SD
[23] = male, C57BL/6, mouse, plasma, ip, 0.5 h, individual mice, read-out: Plasma Concentration (μM) Individual
[24] = male, C57BL/6, mouse, plasma, ip, 0.5 h, n = 3, read-out: Plasma Concentration (μM) Mean ± SD
[25] = male, C57BL/6, mouse, plasma, ip, 4 h, n = 3, read-out: Plasma Concentration (μM) Mean ± SD
[26] = male, C57BL/6, mouse, plasma, IP 10 mg/kg
[27] = male, C57BL/6, mouse, IP 10 mg/kg, plasma

T1 sequence (P28223 whole entry): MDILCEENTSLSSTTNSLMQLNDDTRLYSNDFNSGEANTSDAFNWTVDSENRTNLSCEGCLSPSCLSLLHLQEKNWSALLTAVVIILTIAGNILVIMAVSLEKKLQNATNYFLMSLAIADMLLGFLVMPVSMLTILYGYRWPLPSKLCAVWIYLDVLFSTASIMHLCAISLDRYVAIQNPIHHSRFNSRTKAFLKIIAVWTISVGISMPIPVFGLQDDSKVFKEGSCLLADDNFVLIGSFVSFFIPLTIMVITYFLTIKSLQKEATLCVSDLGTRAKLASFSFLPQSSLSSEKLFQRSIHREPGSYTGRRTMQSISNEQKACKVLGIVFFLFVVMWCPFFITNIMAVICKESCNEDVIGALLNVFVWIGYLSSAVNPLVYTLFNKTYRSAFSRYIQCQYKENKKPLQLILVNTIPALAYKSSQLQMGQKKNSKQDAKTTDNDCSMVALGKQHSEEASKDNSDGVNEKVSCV

Row | Structure (SMILES) | Emax (5-HT2A; [2]) | Emax (5-HT2C; [2]) | Brain AUC0-4 h ([1]; IP 10 mg/kg) | B:P Ratio Individual [1, 3] | Plasma Concentration (μM) Individual [1, 3] | concentration at 0.5 h [1, 4] | B:P Ratio Individual [1, 5] | Plasma Concentration (μM) Individual [1, 5] | concentration at 0.5 h [1, 6] | B:P Ratio Individual [1, 7] | Plasma Concentration (μM) Individual [1, 7] | concentration at 0.5 h [1, 8] | concentration at 0.083 h [1, 9] | concentration at 0.083 h [1, 10] | concentration at 0.5 h [1, 11] | concentration at 4 h [1, 12] | Kp at 0.083 h [1, 13] | Kp at 0.083 h [1, 14] | Kp at 0.5 h [1, 15] | Kp at 0.5 h [1, 16] | further results
1 | COc1ccc2cccc(CCN(C)C(C)C)c2c1 [Example I-7, N-(2-(7-methoxynaphthalen-1-yl)ethyl)-N-methylpropan-2-amine] | 84% | 56% | 32.3 µM·h | 11 and 8.9 | 0.896 µM and 1.00 µM | 9.90 µM and 8.88 µM | 18 and 26 | 0.947 µM and 1.55 µM | 17.9 µM and 17.5 µM and 40.1 µM | 14 and 11 | 0.0483 µM and 0.0571 µM | 0.696 µM and 0.639 µM | 6.41 µM | 8.4 ± 1.79 µM | 25.2 ± 13 µM | 0.0825 µM | 9.2 | 9.7 ± 1.2 | 17 | 21 ± 4.6 | EC50 (5-HT2A): 164 nM; EC50 (5-HT2C): 603 nM; concentration at 4 h ([1]; male, C57BL/6, mouse, brain, ip, 4 h, individual mice, read-out: Brain Parenchyma Concentration (μM) Individual): 1.14 µM; Kp at 4 h [1, 17]: 16; Kp at 4 h [1, 18]: 14 ± 2.4; Kp [1, 19]: 3.2; Kp [1, 20]: 18; concentration at 0.083 h [1, 21]: 0.695 µM; concentration at 0.083 h [1, 22]: 0.864 ± 0.155 µM; concentration at 0.5 h [1, 23]: 1.03 µM; concentration at 0.5 h [1, 24]: 1.18 ± 0.329 µM; concentration at 4 h ([1]; male, C57BL/6, mouse, plasma, ip, 4 h, individual mice, read-out: Plasma Concentration (μM) Individual): 0.0723 µM; concentration at 4 h [1, 25]: 0.0592 ± 0.0121 µM; Cmax [1, 26]: 1180 nM; Tmax [1, 26]: 30 min; AUC(0-t) [1, 26]: 1.82 µM·h; AUC(0-inf) [1, 26]: 1.89 µM·h; half-life [1, 27]: 46.2 min
2 | COc1ccc2cccc(CCN(C)C3CC3)c2c1 [Example I-15, N-(2-(7-methoxynaphthalen-1-yl)ethyl)-N-methylcyclopropanamine] | 70% | 65% | 13.8 µM·h | 6.9 and 6.7 | 1.38 µM and 1.48 µM | 9.59 µM and 9.89 µM | 8.2 and 8.1 | 0.932 µM and 0.820 µM | 7.6 µM and 6.64 µM | 9.3 and 7.5 | 0.0701 µM and 0.151 µM and 0.101 µM | 0.553 µM and 1.41 µM and 0.755 µM | 16.9 µM | 12.1 ± 4.14 µM | 6.18 ± 1.7 µM | 0.905 ± 0.446 µM | 7.3 | 7 ± 0.33 | 6 | 7.4 ± 1.2 | EC50 (5-HT2A; agonist activity, Ca2+ flux, HEK293, read-out: 5-HT2A EC50): 133 nM; EC50 (5-HT2C; agonist activity, Ca2+ flux, HEK293, read-out: 5-HT2C EC50): 292 nM; concentration at 0.5 h ([1]; male, C57BL/6, mouse, brain, ip, 0.5 h, individual mice, read-out: Brain Parenchyma Concentration (μM) Individual): 4.3 µM; Kp at 4 h [1, 17]: 7.9; Kp at 4 h [1, 18]: 8.2 ± 1; Kp [1, 19]: 2; Kp [1, 20]: 8.1; concentration at 0.083 h [1, 21]: 2.3 µM; concentration at 0.083 h [1, 22]: 1.72 ± 0.506 µM; concentration at 0.5 h [1, 23]: 0.718 µM; concentration at 0.5 h [1, 24]: 0.823 ± 0.107 µM; concentration at 4 h [1, 25]: 0.107 ± 0.0406 µM; Cmax [1, 26]: 1720 nM; Tmax [1, 26]: 5 min; AUC(0-t) [1, 26]: 1.71 µM·h; AUC(0-inf) [1, 26]: 1.9 µM·h; half-life [1, 27]: 72 min
